From patent US20080194616A1, “PYRIDOPYRIMIDINONE COMPOUNDS USEFUL IN TREATING SODIUM CHANNEL-MEDIATED DISEASES OR CONDITIONS” (Xenon Pharmaceuticals Inc., priority 2007, published 2008)

Legend:
CHO-K1 = assay type: cell-based, Chinese Hamster
L6 (rat myoblast cell) = assay type: cell-based
SK-N-BE2C = assay type: cell-based, human
[1] = test system: PC12 (rat pheochromocytoma); assay type: cell-based
sodium channel = assay: Guanidine Influx Assay (In Vitro Assay); assay type: cell-based, human or rat; conditions: known cell line that expresses a sodium channel; read-out: IC50 Activity Level
Text: This example describes an in vitro assay for testing and profiling test agents against human or rat sodium channels stably expressed in cells of either an endogenous or recombinant origin. The assay is also useful for determining the IC-50 of a sodium channel blocking compound. The assay is based on the guanidine flux assay described by Reddy, N. L., et al., J. Med. Chem. (1998), 41(17):3298-302.
The guanidine influx assay is a radiotracer flux assay used to determine ion flux activity of sodium channels in a high-throughput microplate-based format. The assay uses ^14C-guanidine hydrochloride in combination with various known sodium channel modulators, to assay the potency of test agents. Potency is determined by an IC-50 calculation. Selectivity is determined by comparing potency of the compound for the channel of interest to its potency against other sodium channels (also called ‘selectivity profiling’).
Each of the test agents is assayed against cells that express the channels of interest. Voltage gated sodium channels are either TTX sensitive or insensitive. This property is useful when evaluating the activities of a channel of interest when it resides in a mixed population with other sodium channels. The following Table 1 summarizes cell lines useful in screening for a certain channel activity in the presence or absence of TTX.
Cells expressing the channel of interest are grown according to the supplier or in the case of a recombinant cell in the presence of selective growth media such as G418 (Gibco/Invitrogen). The cells are disassociated from the culture dishes with an enzymatic solution (1×) Trypsin/EDTA (Gibco/Invitrogen) and analyzed for density and viability using haemocytometer (Neubauer). Disassociated cells are washed and resuspended in their culture media then plated into Scintiplates (Beckman Coulter Inc.) (approximately 100,000 cells/well) and incubated at 37° C./5% CO2. for 20-24 hours. After an extensive wash with Low sodium HEPES-buffered saline solution (LNHBSS) (150 mM Choline Chloride, […] (Sigma), 1 mM Calcium Chloride, 5 mM Potassium Chloride, 1 mM Magnesium Chloride, 10 mM Glucose) agents diluted with LNHBSS are added to each well. (Varying concentrations of test agent may be used). The activation/radiolabel mixture contains aconitine (Sigma), and ^14C-guanidine hydrochloride (ARC).
After loading the cells with test agent and activation/radiolabel mixture, the Scintiplates are incubated at ambient temperature. Following the incubation, the Scintplates are extensively washed with LNHBSS supplemented with guanidine (Sigma). The Scintiplates are dried and then counted using a Wallac MicroBeta TriLux (Perkin-Elmer Life Sciences). The ability of the test agent to block sodium channel activity is determined by comparing the amount of ^14C-guanidine present inside the cells expressing the different sodium channels.
IC-50 value of a test agent for a specific sodium channel may be determined using the above general method. IC-50 may be determined using a 3,8,10,12 or 16 point curve in duplicate or triplicate with a starting concentration of 1, 5 or 10 μM diluted serially with a final concentration reaching the sub-nanomolar, nanomolar and low micromolar ranges. Typically the mid-point concentration of test agent is set at 1 μM, and sequential concentrations of half dilutions greater or smaller are applied (e.g. 0.5 μM; […] and 0.25 μM; 10 μM and 0.125 μM; 20 μM etc.). The IC-50 curve is calculated using the 4 Parameter Logistic Model or Sigmoidal Dose-Response Model formula (fit=(A+((B−A)/(1+((C/x)̂D)))).

Compound	block of [14C] Guanidine influx (CHO-K1)	block of [14C] Guanidine influx (L6 (rat myoblast cell))	block of [14C] Guanidine influx (SK-N-BE2C)	block of [14C] Guanidine influx [1]	IC50 (sodium channel) [µM]	melting point [°C]
NC1=N[C@H](O)[C@H]2[C@H]3O[C@]4(O)O[C@@H]([C@@H](O)[C@@]2(N1)[C@@H]4O)[C@]3(O)CO [TTX, tetrodotoxin]	Guanidine influx was completely	partially blocked by TTX (Nav1.5	TTX partially blocked influx	Guanidine influx was completely		
CC(C)c1nc2ccccn2c(=O)c1-c1ccc(N[C@@H]2CCN(C(=O)OC(C)(C)C)C2)cc1 (stereo in doubt) [Example 3.6, tert-butyl 3-({4-[2-(1-methylethyl)-4-oxo-4H-pyrido[1,2-a]pyrimidin-3-yl]phenyl}amino)pyrrolidine-1-carboxylate]					≥ 10	232 to 236
